According to patent US10206394B2, “Herbicidal compounds” (Syngenta Participations AG, priority 2014, dated 2019):
Like-named read-outs stand apart in the source and are kept apart here.

Experiments:
Assay in all cases: Glasshouse assay for herbicidal activity (pre- and post-emergence), percentage phytotoxicity
Type in all cases: in vivo
[1] = tested on: Alopecurus myosuroides (ALOMY); settings: Alopecurus myosuroides
Outline: (§1)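 Herbicide was applied to potted plants sown in standard soil, one day after sowing for PRE and after about 12 days for POST. Visual percentage damage ratings followed at 15 DAA (POST) and 20 DAA (PRE).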

[2] = tested on: Echinochloa crus-galli (ECHCG); settings: Echinochloa crus-galli
Outline: as §1

Lolium perenne (LOLPE) = settings: Lolium perenne
Outline: as §1

Avena fatua (AVEFA) = settings: Avena fatua
Outline: as §1

[3] = post-emergence, 360 h, POST-emergence, rate 250 g/ha, visual score 15 DAA (100%=total damage, 0%=no damage), read-out: Post-emergence herbicidal activity (percentage phytotoxicity) ALOMY POST
[4] = pre-emergence, 480 h, PRE-emergence, rate 250 g/ha, visual score 20 DAA (100%=total damage, 0%=no damage), read-out: Pre-emergence herbicidal activity (percentage phytotoxicity) ALOMY PRE
[5] = post-emergence, 360 h, POST-emergence, rate 250 g/ha, visual score 15 DAA (100%=total damage, 0%=no damage), read-out: Post-emergence herbicidal activity (percentage phytotoxicity) ECHCG POST
[6] = pre-emergence, 480 h, PRE-emergence, rate 250 g/ha, visual score 20 DAA (100%=total damage, 0%=no damage), read-out: Pre-emergence herbicidal activity (percentage phytotoxicity) ECHCG PRE
[7] = post-emergence, 360 h, POST-emergence, rate 250 g/ha, visual score 15 DAA (100%=total damage, 0%=no damage), read-out: Post-emergence herbicidal activity (percentage phytotoxicity) LOLPE POST
[8] = pre-emergence, 480 h, PRE-emergence, rate 250 g/ha, visual score 20 DAA (100%=total damage, 0%=no damage), read-out: Pre-emergence herbicidal activity (percentage phytotoxicity) LOLPE PRE
[9] = post-emergence, 360 h, POST-emergence, rate 250 g/ha, visual score 15 DAA (100%=total damage, 0%=no damage), read-out: Post-emergence herbicidal activity (percentage phytotoxicity) AVEFA POST
[10] = pre-emergence, 480 h, PRE-emergence, rate 250 g/ha, visual score 20 DAA (100%=total damage, 0%=no damage), read-out: Pre-emergence herbicidal activity (percentage phytotoxicity) AVEFA PRE

C#CC(C)(C)NC(=O)CC1CC(=O)C(c2c(C)cc(-c3ncc(F)cn3)cc2C)C1=O (stereo not shown) [Compound B113]
pest or weed control at 250 g/ha ([1]; post-emergence, 360 h, 250 g/ha, post-emergence, 15 DAA, visual assessment (100%=total damage, 0%=no damage), read-out: Post-emergence herbicidal activity (percentage phytotoxicity) ALOMY POST): 100%
pest or weed control at 250 g/ha ([1]; pre-emergence, 480 h, 250 g/ha, pre-emergence, 20 DAA, visual assessment (100%=total damage, 0%=no damage), read-out: Pre-emergence herbicidal activity (percentage phytotoxicity) ALOMY PRE): 90%
pest or weed control at 250 g/ha ([2]; post-emergence, 360 h, 250 g/ha, post-emergence, 15 DAA, visual assessment (100%=total damage, 0%=no damage), read-out: Post-emergence herbicidal activity (percentage phytotoxicity) ECHCG POST): 100%
pest or weed control at 250 g/ha ([2]; pre-emergence, 480 h, 250 g/ha, pre-emergence, 20 DAA, visual assessment (100%=total damage, 0%=no damage), read-out: Pre-emergence herbicidal activity (percentage phytotoxicity) ECHCG PRE): 100%
pest or weed control at 250 g/ha (Lolium perenne (LOLPE); post-emergence, 360 h, 250 g/ha, post-emergence, 15 DAA, visual assessment (100%=total damage, 0%=no damage), read-out: Post-emergence herbicidal activity (percentage phytotoxicity) LOLPE POST): 100%
pest or weed control at 250 g/ha (Lolium perenne (LOLPE); pre-emergence, 480 h, 250 g/ha, pre-emergence, 20 DAA, visual assessment (100%=total damage, 0%=no damage), read-out: Pre-emergence herbicidal activity (percentage phytotoxicity) LOLPE PRE): 90%
pest or weed control at 250 g/ha (Avena fatua (AVEFA); post-emergence, 360 h, 250 g/ha, post-emergence, 15 DAA, visual assessment (100%=total damage, 0%=no damage), read-out: Post-emergence herbicidal activity (percentage phytotoxicity) AVEFA POST): 100%
pest or weed control at 250 g/ha (Avena fatua (AVEFA); pre-emergence, 480 h, 250 g/ha, pre-emergence, 20 DAA, visual assessment (100%=total damage, 0%=no damage), read-out: Pre-emergence herbicidal activity (percentage phytotoxicity) AVEFA PRE): 90%

Cc1cc(-c2ncc(Cl)cn2)cc(C)c1C1C(=O)CC(CC(=O)NCc2cccc(F)c2)C1=O (stereo not shown) [Compound B337]
pest or weed control at 250 g/ha ([1]; post-emergence, 360 h, Rate 250 g/ha, post-emergence, visual assessment 15 DAA, 100%=total damage, 0%=no damage, read-out: Post-emergence herbicidal activity (percentage phytotoxicity) ALOMY POST): 100%
pest or weed control at 250 g/ha ([1]; pre-emergence, 480 h, Rate 250 g/ha, pre-emergence, visual assessment 20 DAA, 100%=total damage, 0%=no damage, read-out: Pre-emergence herbicidal activity (percentage phytotoxicity) ALOMY PRE): 90%
pest or weed control at 250 g/ha ([2]; post-emergence, 360 h, Rate 250 g/ha, post-emergence, visual assessment 15 DAA, 100%=total damage, 0%=no damage, read-out: Post-emergence herbicidal activity (percentage phytotoxicity) ECHCG POST): 100%
pest or weed control at 250 g/ha ([2]; pre-emergence, 480 h, Rate 250 g/ha, pre-emergence, visual assessment 20 DAA, 100%=total damage, 0%=no damage, read-out: Pre-emergence herbicidal activity (percentage phytotoxicity) ECHCG PRE): 90%
pest or weed control at 250 g/ha (Lolium perenne (LOLPE); post-emergence, 360 h, Rate 250 g/ha, post-emergence, visual assessment 15 DAA, 100%=total damage, 0%=no damage, read-out: Post-emergence herbicidal activity (percentage phytotoxicity) LOLPE POST): 100%
pest or weed control at 250 g/ha (Lolium perenne (LOLPE); pre-emergence, 480 h, Rate 250 g/ha, pre-emergence, visual assessment 20 DAA, 100%=total damage, 0%=no damage, read-out: Pre-emergence herbicidal activity (percentage phytotoxicity) LOLPE PRE): 90%
pest or weed control at 250 g/ha (Avena fatua (AVEFA); post-emergence, 360 h, Rate 250 g/ha, post-emergence, visual assessment 15 DAA, 100%=total damage, 0%=no damage, read-out: Post-emergence herbicidal activity (percentage phytotoxicity) AVEFA POST): 100%
pest or weed control at 250 g/ha (Avena fatua (AVEFA); pre-emergence, 480 h, Rate 250 g/ha, pre-emergence, visual assessment 20 DAA, 100%=total damage, 0%=no damage, read-out: Pre-emergence herbicidal activity (percentage phytotoxicity) AVEFA PRE): 90%

C#CCN(C)C(=O)CC1CC(=O)C(c2c(C)cc(C)cc2CC)C1=O (stereo not shown) [Compound B260]
pest or weed control at 250 g/ha [1, 3]: 100%
pest or weed control at 250 g/ha [1, 4]: 90%
pest or weed control at 250 g/ha [2, 5]: 100%
pest or weed control at 250 g/ha [2, 6]: 100%
pest or weed control at 250 g/ha (Lolium perenne (LOLPE); [7]): 100%
pest or weed control at 250 g/ha (Lolium perenne (LOLPE); [8]): 100%
pest or weed control at 250 g/ha (Avena fatua (AVEFA); [9]): 100%
pest or weed control at 250 g/ha (Avena fatua (AVEFA); [10]): 80%

Cc1cc(-c2ncc(Cl)cc2Cl)cc(C)c1C1C(=O)CC(CC(=O)NCc2cccc(Cl)c2)C1=O (stereo not shown) [Compound A135]
pest or weed control at 250 g/ha ([1]; post-emergence, 360 h, Rate 250 g/ha, post-emergence, assessed visually 15 DAA, 100%=total damage, 0%=no damage, read-out: Post-emergence herbicidal activity (percentage phytotoxicity) ALOMY POST): 90%
pest or weed control at 250 g/ha ([1]; pre-emergence, 480 h, Rate 250 g/ha, pre-emergence, assessed visually 20 DAA, 100%=total damage, 0%=no damage, read-out: Pre-emergence herbicidal activity (percentage phytotoxicity) ALOMY PRE): 20%
pest or weed control at 250 g/ha ([2]; post-emergence, 360 h, Rate 250 g/ha, post-emergence, assessed visually 15 DAA, 100%=total damage, 0%=no damage, read-out: Post-emergence herbicidal activity (percentage phytotoxicity) ECHCG POST): 100%
pest or weed control at 250 g/ha ([2]; pre-emergence, 480 h, Rate 250 g/ha, pre-emergence, assessed visually 20 DAA, 100%=total damage, 0%=no damage, read-out: Pre-emergence herbicidal activity (percentage phytotoxicity) ECHCG PRE): 60%
pest or weed control at 250 g/ha (Lolium perenne (LOLPE); post-emergence, 360 h, Rate 250 g/ha, post-emergence, assessed visually 15 DAA, 100%=total damage, 0%=no damage, read-out: Post-emergence herbicidal activity (percentage phytotoxicity) LOLPE POST): 90%
pest or weed control at 250 g/ha (Lolium perenne (LOLPE); pre-emergence, 480 h, Rate 250 g/ha, pre-emergence, assessed visually 20 DAA, 100%=total damage, 0%=no damage, read-out: Pre-emergence herbicidal activity (percentage phytotoxicity) LOLPE PRE): 70%
pest or weed control at 250 g/ha (Avena fatua (AVEFA); post-emergence, 360 h, Rate 250 g/ha, post-emergence, assessed visually 15 DAA, 100%=total damage, 0%=no damage, read-out: Post-emergence herbicidal activity (percentage phytotoxicity) AVEFA POST): 100%
pest or weed control at 250 g/ha (Avena fatua (AVEFA); pre-emergence, 480 h, Rate 250 g/ha, pre-emergence, assessed visually 20 DAA, 100%=total damage, 0%=no damage, read-out: Pre-emergence herbicidal activity (percentage phytotoxicity) AVEFA PRE): 30%

Cc1cc(OCC(F)(F)F)cc(C)c1C1C(=O)CC(CC(=O)N(C)C(C)(C)C)C1=O (stereo not shown) [Compound B212]
pest or weed control at 250 g/ha [1, 3]: 90%
pest or weed control at 250 g/ha [1, 4]: 60%
pest or weed control at 250 g/ha [2, 5]: 90%
pest or weed control at 250 g/ha [2, 6]: 100%
pest or weed control at 250 g/ha (Lolium perenne (LOLPE); [7]): 70%
pest or weed control at 250 g/ha (Lolium perenne (LOLPE); [8]): 90%
pest or weed control at 250 g/ha (Avena fatua (AVEFA); [9]): 60%
pest or weed control at 250 g/ha (Avena fatua (AVEFA); [10]): 60%
